The target in assay [1] is T1, Ephrin type-A receptor 3 (Homo sapiens) (UniProt P29320).
T1 sequence (whole entry): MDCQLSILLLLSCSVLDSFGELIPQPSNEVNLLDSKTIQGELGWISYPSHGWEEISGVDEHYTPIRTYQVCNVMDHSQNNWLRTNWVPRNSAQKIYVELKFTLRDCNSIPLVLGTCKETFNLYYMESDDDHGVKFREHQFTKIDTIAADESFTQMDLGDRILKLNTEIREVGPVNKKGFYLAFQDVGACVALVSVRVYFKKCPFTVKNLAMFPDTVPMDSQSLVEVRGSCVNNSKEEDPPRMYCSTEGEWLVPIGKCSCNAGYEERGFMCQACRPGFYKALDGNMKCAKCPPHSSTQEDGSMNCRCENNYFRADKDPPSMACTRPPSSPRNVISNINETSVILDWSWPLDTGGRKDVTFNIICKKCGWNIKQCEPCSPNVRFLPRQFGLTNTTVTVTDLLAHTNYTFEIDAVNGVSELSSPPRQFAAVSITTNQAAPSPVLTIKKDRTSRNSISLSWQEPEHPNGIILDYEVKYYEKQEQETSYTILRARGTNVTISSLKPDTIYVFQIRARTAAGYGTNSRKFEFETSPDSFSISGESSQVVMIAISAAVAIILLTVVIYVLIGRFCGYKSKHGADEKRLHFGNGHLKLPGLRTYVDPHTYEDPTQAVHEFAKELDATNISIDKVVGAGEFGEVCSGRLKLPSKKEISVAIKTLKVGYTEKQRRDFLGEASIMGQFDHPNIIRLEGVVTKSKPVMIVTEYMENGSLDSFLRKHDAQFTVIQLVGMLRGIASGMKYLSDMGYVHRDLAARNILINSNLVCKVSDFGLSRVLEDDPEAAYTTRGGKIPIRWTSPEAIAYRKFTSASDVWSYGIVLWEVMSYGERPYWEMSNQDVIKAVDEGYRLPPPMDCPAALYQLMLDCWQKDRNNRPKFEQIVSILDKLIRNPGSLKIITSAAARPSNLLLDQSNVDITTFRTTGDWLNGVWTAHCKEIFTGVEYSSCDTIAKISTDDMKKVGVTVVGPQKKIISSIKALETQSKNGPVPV
In words: Selectivity interaction (KinomeScan (DiscoverX)) EUB0001079a EPHA3. The following applies: at 1 µM.

Assay [2] concerns the target T2, Serine/threonine-protein kinase 3 (Homo sapiens) (UniProt Q13188).
T2 sequence (whole entry): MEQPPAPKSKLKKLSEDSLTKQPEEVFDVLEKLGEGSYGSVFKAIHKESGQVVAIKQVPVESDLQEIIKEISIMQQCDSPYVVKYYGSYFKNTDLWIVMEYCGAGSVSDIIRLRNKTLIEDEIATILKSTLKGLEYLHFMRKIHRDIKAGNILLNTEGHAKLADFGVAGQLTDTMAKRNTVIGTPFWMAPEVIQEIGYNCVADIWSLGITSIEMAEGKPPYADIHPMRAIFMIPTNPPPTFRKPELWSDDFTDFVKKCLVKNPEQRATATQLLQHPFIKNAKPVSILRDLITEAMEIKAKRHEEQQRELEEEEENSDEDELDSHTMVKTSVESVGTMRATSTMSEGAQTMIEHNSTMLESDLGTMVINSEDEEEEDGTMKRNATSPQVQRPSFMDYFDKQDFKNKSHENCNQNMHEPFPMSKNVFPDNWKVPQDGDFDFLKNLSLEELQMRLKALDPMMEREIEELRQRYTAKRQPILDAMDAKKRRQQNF
Description: Selectivity interaction (KinomeScan (DiscoverX)) EUB0001079a STK3. As to conditions: at 1 µM.

Assay [3] has as its target Serine/threonine-protein kinase mTOR (Homo sapiens, UniProt P42345). Description: Selectivity interaction (Kinase panel (antibody-dependent TR-FRET assay, phosphorylation of 4EBP-1 catalyzed by recombinant mTOR)) EUB0000877a MTOR. (Time-resolved FRET reads energy transfer from a long-lived donor to a nearby acceptor.)
Assay [4] concerns the target T3, Serine/threonine-protein kinase PLK4 (Homo sapiens) (UniProt O00444).
T3 sequence (whole entry): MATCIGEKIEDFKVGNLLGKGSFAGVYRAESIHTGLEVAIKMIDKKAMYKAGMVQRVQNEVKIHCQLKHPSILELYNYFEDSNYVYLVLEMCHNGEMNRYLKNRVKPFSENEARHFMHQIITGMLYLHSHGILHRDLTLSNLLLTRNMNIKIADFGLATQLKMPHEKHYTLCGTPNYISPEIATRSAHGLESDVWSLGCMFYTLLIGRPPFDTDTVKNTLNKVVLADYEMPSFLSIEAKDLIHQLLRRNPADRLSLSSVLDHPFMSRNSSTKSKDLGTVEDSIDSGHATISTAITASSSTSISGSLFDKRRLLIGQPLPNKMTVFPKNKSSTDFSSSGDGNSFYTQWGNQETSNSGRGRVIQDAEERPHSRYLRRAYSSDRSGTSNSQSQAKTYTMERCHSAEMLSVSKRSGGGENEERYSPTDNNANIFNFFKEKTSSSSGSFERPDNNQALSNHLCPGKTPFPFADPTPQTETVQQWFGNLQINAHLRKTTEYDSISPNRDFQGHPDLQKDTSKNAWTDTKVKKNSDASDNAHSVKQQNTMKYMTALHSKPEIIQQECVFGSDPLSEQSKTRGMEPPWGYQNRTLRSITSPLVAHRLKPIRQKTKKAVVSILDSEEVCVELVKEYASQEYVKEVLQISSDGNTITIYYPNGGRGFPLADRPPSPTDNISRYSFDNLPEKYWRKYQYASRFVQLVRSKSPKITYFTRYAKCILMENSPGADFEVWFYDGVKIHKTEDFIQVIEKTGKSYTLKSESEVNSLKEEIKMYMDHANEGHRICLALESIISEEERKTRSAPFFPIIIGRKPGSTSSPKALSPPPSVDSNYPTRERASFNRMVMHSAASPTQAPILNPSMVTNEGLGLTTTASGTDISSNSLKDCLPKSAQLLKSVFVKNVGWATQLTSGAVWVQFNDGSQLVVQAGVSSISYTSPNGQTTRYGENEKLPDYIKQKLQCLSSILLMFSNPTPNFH
In words: Selectivity interaction (ProQinase) EUB0000171b PLK4.

In assay [5] the target is Type-1 angiotensin II receptor (Homo sapiens) (UniProt P30556). In words: Selectivity interaction (Eurofins CEREP Diversity Profile (receptors and ion channels)) EUB0000279b AGTR1. As to conditions: at 10 µM.
Type-1 angiotensin II receptor (Homo sapiens), sequence (P30556 whole entry): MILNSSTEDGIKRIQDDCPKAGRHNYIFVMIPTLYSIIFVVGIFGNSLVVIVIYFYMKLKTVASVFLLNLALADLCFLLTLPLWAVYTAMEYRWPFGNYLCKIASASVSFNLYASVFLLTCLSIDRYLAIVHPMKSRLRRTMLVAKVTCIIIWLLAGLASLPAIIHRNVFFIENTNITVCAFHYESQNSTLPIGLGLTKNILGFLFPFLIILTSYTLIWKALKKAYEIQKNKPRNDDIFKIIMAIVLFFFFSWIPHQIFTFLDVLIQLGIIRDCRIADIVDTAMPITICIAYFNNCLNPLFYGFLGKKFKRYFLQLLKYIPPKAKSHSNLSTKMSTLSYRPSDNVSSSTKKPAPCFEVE
Assay [6] deals with Epidermal growth factor receptor (Homo sapiens), P00533 [G719C]. In words: (§1) Selectivity interaction (KinomeScan (DiscoverX)) EUB0000618a EGFR. The following applies: at 10 µM.
For assay [7], the system named is Epidermal growth factor receptor (Homo sapiens), P00533 [L858R,T790M]. Described as §1. As to conditions: at 10 µM.
Epidermal growth factor receptor (Homo sapiens), P00533 [L858R,T790M], sequence (P00533 whole entry T790M/L858R, looked up): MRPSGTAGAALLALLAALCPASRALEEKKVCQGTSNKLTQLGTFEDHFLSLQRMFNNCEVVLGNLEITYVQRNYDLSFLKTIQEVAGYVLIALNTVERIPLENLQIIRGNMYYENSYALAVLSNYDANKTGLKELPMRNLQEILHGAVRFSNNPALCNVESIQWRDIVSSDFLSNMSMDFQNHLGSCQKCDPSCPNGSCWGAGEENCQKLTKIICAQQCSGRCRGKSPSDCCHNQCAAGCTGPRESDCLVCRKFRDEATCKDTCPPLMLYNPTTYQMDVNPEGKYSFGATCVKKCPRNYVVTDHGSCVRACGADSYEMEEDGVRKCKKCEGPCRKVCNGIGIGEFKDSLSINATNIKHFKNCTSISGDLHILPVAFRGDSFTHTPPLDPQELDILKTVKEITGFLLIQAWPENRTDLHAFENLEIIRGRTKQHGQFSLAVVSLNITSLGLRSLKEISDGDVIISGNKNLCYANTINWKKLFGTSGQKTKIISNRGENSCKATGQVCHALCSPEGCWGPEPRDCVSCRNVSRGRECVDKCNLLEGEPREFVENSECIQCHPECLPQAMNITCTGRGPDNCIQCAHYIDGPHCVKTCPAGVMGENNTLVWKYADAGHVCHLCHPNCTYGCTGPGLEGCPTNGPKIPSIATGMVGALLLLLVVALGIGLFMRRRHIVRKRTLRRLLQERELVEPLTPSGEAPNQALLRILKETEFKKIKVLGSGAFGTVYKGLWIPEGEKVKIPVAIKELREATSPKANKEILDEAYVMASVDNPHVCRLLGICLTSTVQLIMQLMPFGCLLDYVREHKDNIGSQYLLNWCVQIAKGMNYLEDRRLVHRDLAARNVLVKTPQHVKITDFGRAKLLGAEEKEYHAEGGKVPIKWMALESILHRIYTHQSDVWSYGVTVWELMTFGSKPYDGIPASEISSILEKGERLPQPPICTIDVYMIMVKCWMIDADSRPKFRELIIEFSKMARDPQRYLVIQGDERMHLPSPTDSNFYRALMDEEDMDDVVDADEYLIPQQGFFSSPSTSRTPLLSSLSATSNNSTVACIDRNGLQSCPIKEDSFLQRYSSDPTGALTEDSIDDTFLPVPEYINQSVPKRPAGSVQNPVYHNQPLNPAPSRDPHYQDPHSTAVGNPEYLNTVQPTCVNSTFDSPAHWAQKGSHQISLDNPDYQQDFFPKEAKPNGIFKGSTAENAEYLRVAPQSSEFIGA
Assay [8] deals with Epidermal growth factor receptor (Homo sapiens), P00533 [L858R]. The assay is described as §1. The following applies: at 10 µM.
Epidermal growth factor receptor (Homo sapiens), P00533 [L858R], sequence (P00533 whole entry L858R): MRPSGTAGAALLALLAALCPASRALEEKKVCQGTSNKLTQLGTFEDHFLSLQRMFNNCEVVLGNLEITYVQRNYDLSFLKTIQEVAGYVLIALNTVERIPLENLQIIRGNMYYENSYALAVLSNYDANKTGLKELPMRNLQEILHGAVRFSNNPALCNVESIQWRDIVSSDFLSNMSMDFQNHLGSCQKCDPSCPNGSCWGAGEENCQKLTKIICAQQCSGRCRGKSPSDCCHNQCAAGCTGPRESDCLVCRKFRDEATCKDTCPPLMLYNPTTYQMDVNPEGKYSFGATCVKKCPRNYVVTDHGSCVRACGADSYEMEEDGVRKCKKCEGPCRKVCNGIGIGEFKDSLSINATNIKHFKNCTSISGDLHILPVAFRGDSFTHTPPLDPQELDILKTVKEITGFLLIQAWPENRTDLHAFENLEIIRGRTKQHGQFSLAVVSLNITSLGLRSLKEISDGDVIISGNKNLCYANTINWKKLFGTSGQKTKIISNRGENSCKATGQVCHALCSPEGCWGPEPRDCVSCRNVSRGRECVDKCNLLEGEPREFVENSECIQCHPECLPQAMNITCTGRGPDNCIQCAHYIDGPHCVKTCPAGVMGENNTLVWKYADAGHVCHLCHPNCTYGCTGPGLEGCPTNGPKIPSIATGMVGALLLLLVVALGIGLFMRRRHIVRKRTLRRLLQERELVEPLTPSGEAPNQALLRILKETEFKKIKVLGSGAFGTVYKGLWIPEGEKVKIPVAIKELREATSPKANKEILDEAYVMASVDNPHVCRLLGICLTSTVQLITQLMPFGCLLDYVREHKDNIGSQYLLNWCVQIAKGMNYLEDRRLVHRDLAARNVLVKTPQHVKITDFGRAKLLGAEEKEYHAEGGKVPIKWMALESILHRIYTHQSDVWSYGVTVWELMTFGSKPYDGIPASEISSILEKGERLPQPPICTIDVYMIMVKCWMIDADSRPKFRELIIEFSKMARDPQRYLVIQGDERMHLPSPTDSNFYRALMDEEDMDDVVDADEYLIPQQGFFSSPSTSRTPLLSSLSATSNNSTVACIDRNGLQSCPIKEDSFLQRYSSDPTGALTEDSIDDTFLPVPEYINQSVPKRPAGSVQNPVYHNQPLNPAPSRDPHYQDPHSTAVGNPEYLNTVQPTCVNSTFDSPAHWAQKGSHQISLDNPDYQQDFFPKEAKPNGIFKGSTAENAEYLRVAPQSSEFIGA
The subject of assay [9] is Epidermal growth factor receptor (Homo sapiens), P00533 [T790M]. The assay is described as §1. The following applies: at 10 µM.
Assay [10] concerns Epidermal growth factor receptor (Homo sapiens), P00533 [UNDEFINED MUTATION]. The description is as §1. As to conditions: at 10 µM.

The results in this text go back to ChEMBL document CHEMBL5465560, “Selectivity Literature for EUbOPEN Chemogenomic Library” (2024).

Some results are limits rather than exact numbers.

As a reminder, the IC50 is the concentration that gives 50% inhibition.

Epidermal growth factor receptor (Homo sapiens), P00533 [T790M], sequence (P00533 whole entry T790M): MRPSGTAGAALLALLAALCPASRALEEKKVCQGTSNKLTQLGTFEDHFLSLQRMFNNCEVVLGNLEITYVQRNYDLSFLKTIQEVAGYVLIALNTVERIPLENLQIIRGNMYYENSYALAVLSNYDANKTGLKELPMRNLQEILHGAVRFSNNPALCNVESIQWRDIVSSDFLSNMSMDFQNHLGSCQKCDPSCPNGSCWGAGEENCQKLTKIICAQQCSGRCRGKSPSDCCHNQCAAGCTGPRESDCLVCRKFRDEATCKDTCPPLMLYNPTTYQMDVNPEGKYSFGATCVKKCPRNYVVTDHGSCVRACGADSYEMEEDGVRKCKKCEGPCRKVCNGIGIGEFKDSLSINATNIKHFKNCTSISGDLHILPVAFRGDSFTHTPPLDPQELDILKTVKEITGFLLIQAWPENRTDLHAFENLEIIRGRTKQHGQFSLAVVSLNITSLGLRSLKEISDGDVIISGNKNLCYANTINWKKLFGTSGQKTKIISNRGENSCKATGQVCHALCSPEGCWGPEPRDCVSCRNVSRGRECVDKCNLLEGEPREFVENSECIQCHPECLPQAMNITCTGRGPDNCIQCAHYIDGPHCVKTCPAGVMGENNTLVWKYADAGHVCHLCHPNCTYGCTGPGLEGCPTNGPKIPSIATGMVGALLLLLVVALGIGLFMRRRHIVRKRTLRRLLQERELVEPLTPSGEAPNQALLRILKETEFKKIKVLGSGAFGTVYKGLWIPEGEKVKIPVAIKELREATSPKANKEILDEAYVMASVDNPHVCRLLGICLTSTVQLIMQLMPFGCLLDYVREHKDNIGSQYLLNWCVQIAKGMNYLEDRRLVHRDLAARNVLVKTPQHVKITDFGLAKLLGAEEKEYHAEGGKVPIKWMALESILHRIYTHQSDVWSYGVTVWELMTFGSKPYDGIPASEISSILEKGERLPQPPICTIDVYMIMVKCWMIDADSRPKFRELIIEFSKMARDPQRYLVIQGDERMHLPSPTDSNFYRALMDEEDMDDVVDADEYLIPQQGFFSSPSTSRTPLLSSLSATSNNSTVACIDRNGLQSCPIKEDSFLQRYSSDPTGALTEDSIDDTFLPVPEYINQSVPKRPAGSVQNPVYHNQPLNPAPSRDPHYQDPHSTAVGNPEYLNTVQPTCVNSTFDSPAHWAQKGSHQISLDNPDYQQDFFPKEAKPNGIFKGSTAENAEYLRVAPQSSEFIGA

As for `Nc1cnc(N2CCc3cc(S(=O)(=O)Nc4c(F)cc(Cl)cc4F)cc(N4CCCC4=O)c32)nc1` [TP-020n], the % of control in assay [1] came to 78%; in assay [2], 96%.
With `CCC(=O)N1CC[C@H](Nc2ncnc3c2CN(c2cnc(OC)c(C(F)(F)F)c2)CC3)C1` [LENIOLISIB], the IC50 in [3] is over 9.1 µM.
On to `C=CC(=O)Nc1cccc(C(=O)Nc2ccc(Nc3cc(-c4[nH]c(SC)nc4C)ccn3)cc2)c1`, for which the % of control was determined as 77% in assay [4] (at 1 µM) and 57% in assay [4] (at 5 µM).
Turning to `CC(=O)c1cc(-c2ccccc2OCC2CC2)c2ncccn12`, the % of control in assay [5] stood at 91%.
Take `O[C@H]1CC[C@H](Nc2ncc3nc(Nc4c(F)cc(F)cc4F)n([C@H]4CCOC4)c3n2)CC1`: the % of control in [6] was found to be 20%; in assay [7], 85%; in [8] it was 17%; in assay [9], 72%; in [10], 7.4%.
